Source: US20150157651A1, “TRI-SUBSTITUTED GLYCEROL COMPOUNDS FOR USE IN THE TREATMENT OF CLINICALLY ISOLATED SYNDROME AND/OR MULTIPLE SCLEROSIS” (ALPHAPTOSE GMBH, priority 2012, published 2015)
In brackets after ≈: the same amount, converted by molar mass. Entries after “also recorded” stand apart in the source; their conditions may differ.

Experiments:
[1] = tested on: lymph node cells of SJL mice; experiment: Ex vivo thymidine proliferation of lymph node cells from treated immunized mice; type: in vivo
Protocol: FIG. 7 describes the impact of edelfosine on proliferation of antigen-specific cells. To examine the influence of edelfosine on antigen-specific cells in the periphery lymph nodes from SJL mice were prepared for thymidine proliferation assays 9 days after immunization. Cells were restimulated ex vivo by addition of mitogenic- (a), polyclonal or disease-relevant (PLP(139-151); b) antigen.

[2] = tested on: CNS-infiltrating cells of EAE SJL mice; experiment: CNS cellular infiltration in EAE acute phase, flow cytometry; type: in vivo; settings: 15 days after EAE induction
Protocol: FIG. 8 describes the effect of edelfosine on CNS cellular infiltration in EAE acute phase. SJL mice were immunized with […]. 15 days after EAE induction CNS cells were analyzed by flow cytometry. The administration of 10 mg/kg edelfosine reduced the absolute number of CNS-infiltrating CD45+ leukocytes (a). […] We found a significant treatment effect with a significant difference between 10 mg/kg edelfosine and PBS treatment in CD4+ cells (*P<0.05 compared to PBS control group, post-hoc comparison after 1-way ANOVA, n=4). Similar differences were found for T cells in spleens at day 9 after immunization.

[3] = tested on: relapsing-remitting EAE (RR-EAE) model in SJL mice; experiment: Relapsing-remitting EAE disease course, clinical scoring; type: in vivo
Excerpt: FIG. 6 describes the influence of edelfosine on EAE disease course. Our aim was to study the effect of edelfosine on the immune system in the context of experimental autoimmune encephalomyelitis (EAE), an animal model of multiple sclerosis. In the course of EAE CD4+ T cell and mononuclear cell inflammation is followed by axonal damage and demyelination in the central nervous system (CNS) which results in progressive hind-limb paralysis. In order to analyze the anti-inflammatory properties of edelfosine we have used the relapsing-remitting EAE (RR-EAE) model in SJL mice. We also examined the edelfosine impact on human T-cell proliferation. For EAE induction SJL mice were immunized with the proteolipid PLP(139-151). Edelfosine was adminstered by intraperitoneal injection from day 0 at a daily basis. EAE disease course was assessed by clinical scoring in a 0-5 scale until day 40 (*P<0.05, 2-way ANOVA, n=7). To investigate the therapeutic effect of edelfosine on RR-EAE disease course, SJL mice were immunized and treatment of the mice was started at disease onset by intraperitoneal injection from day 11 at a daily basis until day 45.

non-stimulated PBMCs = experiment: Flow cytometry of non-stimulated PBMCs for cell death; type: cell-based, human; settings: 10 μg/ml or 33.3 μg/ml, 24 h
human CD4+ T cells [4] = experiment: Whole genome expression (microarray) analysis of CD4+ T cells; type: cell-based; settings: unstimulated cells, 10 μg/ml, 30 h
human PBMCs [5] = experiment: Proliferation of already PHA-activated, proliferating PBMCs, edelfosine added two days later; type: cell-based
Protocol: (§1) FIG. 1: Human T-cell proliferation was affected by edelfosine. […] (B) The inhibitory effect of edelfosine was also observed if the drug was added to already activated, proliferating T cells. […] (C) Preincubation of PBMCs with at least 3.3 μg/ml edelfosine interfered with the cells' capacity to proliferate upon PHA stimulation. No effect was detected in preconditioned, but unstimulated cells (experiments A-C: sample size n=3 donors, each approach was seeded in triplicates). (D) 1 μg/ml edelfosine or higher concentrations profoundly diminished proliferation in MBP(83-99)-specific TCLs (T-cell line). One representative TCL of two is shown. Cells were incubated in quadruplicates. (E) PBMCs were cultured without addition of stimulus. Proliferation was detectable after seven days. […] Bars represent mean values±SEM, *P<0.05, **P<0.01 and ***P<0.001 after post-hoc analysis.
The second approach aimed at characterizing the edelfosine influence on already proliferating cells. For that reason cells were activated with PHA, and edelfosine was added two days later.

human CD4+ T cells [6] = experiment: Whole genome expression (microarray) analysis of CD4+ T cells; type: cell-based
Protocol: FIG. 2: Modulated gene expression in CD4+ T cells upon culture with edelfosine.
Enriched CD4+ T cells from PBMCs of two age-matched female as well as two age-matched male donors were incubated for 30 h without edelfosine, in presence of 3.3 μg/ml edelfosine and 10 μg/ml edelfosine, respectively. In parallel approaches, cells were incubated with beads coated with antibodies against CD2, CD3 and CD28 or with coated beads and 3.3 μg/ml edelfosine. Cell-culture supernatant was saved and cells were subjected to RNA isolation, cDNA synthesis and microarray analysis for gene expression. Comparative gene-expression analysis was performed according to FIG. 2.
In general, edelfosine modulated the gene expression of human CD4+ T cells in the case of stimulation but also if no exogenous stimulus was added, although to a limited extent. […] Therefore, further analysis of the unstimulated cells focused on the 10 μg/ml edelfosine approach. Next, the database for annotation, visualization and integrated discovery (DAVID)-bioinformatics database was used to annotate the differentially expressed genes to functional themes/groups and assign to them so-called gene-ontology (GO) terms for specific pathways of cellular function (314). The GO project is an effort to consistently describe gene products in databases. DAVID, as a tool, is designed to allow systematical mapping of large numbers of genes in lists associated with biological annotations (e.g. GO terms). Three structured controlled vocabularies (ontologies) have been developed to describe gene products in a species-independent manner: the associated biological process (BP), cellular components and molecular functions. The GOTERM_BP_FAT set which has been specifically designed by the DAVID consortium was selected to filter the broadest terms in order to prevent overshadowing of more specific terms. FIG. 3 summarizes the top-3 GO-terms which were selected due to their highest GO P-values. As shown therein, the addition of […] edelfosine was leading to an upregulation of genes associated with apoptosis and cell death in the unstimulated setting, a finding that was in accordance with the previously described analysis for annexin V and PI after edelfosine incubation.

[7] = tested on: human peripheral blood mononuclear cells (PBMCs); experiment: PBMC proliferation, edelfosine added on cell seeding, with or without PHA; type: cell-based
Protocol: as §1
FIG. 9 describes the influence of edelfosine on human T cell proliferation. […] PBMCs were used for the examination of concentration-dependent edelfosine impact on human T cell activation and proliferation (b, 72 h of co-culture). A reduction in proliferation was already detectable upon addition of 1.0 μg/ml edelfosine (**P<0.01, n=3). Enriched CD4+ T cells from PBMCs of both two age-matched female and male donors were incubated for 30 h in presence of 3.3 μg/ml edelfosine. Cells were stimulated with beads coated with antibodies against CD2, CD3 and CD28.
In order to characterize the influence of edelfosine on the proliferation of human T cells, peripheral blood mononuclear cells (PBMCs) were first stimulated with a mitogenic stimulus, PHA (phytohemagglutinin) Proliferation was analyzed after three days of culture. First, the impact of edelfosine on T-cell activation and proliferation was investigated by adding edelfosine immediately as the cells were seeded. Cells were incubated without or in the presence of PHA. […] Here, the half maximal inhibitory concentration (IC50) was determined by nonlinear regression.

human PBMCs [8] = experiment: PBMC proliferation over seven days without addition of stimulus; type: cell-based; settings: 3.3 μg/ml edelfosine, up to seven days
Protocol: as §1
In an additional approach PBMCs were incubated for up to seven days without the addition of a stimulus. Cells were cultured in medium alone, in presence of anti-HLA-DR- and anti-MHC class I-blocking antibody or with 3.3 μg/ml edelfosine.

human PBMCs [9] = experiment: PBMC proliferation after 24 h preincubation with edelfosine, washing, then PHA stimulation; type: cell-based
Protocol: as §1
Cells were washed extensively to remove edelfosine followed by further culturing for three days. In control approaches cells were incubated without PHA. […] 3.3 μg/ml edelfosine or higher interfered with the cellular capacity to proliferate upon stimulation with PHA.

[10] = cells stimulated with anti-CD2/CD3/CD28 beads, 3.3 μg/ml, 30 h
[11] = unstimulated cells, 10 μg/ml, 30 h

## CCCCCCCCCCCCCCCCCCOC[C@H](COP(=O)([O-])OCC[N+](C)(C)C)OC (racemic) [edelfosine, 1-O-octadecyl-2-O-methyl-sn-glycero-3-phosphocholine]
[1]; 9 days after immunization, edelfosine-treated mice
  proliferative function of lymph node cells on ex vivo restimulation: retained their proliferative function
[1]; 9 days after immunization, ex vivo PLP restimulation
  proliferation on re-activation with PLP peptide: edelfosine dose-dependent proliferation
[1]; antigen-induced proliferation, edelfosine-treated mice
  SI compared to PBS treatment of mice: increased SI
[2]; 10 mg/kg
  absolute number of CNS-infiltrating CD45+ leukocytes: reduced
  frequencies of CD8+ T cells: not affected
  infiltrating CD4+ T cells: relative decrease
[2]; significant for 10 mg/kg versus PBS
  activation of caspase 3 in CNS CD4+ T cells: dose-dependent activation; also recorded: increased
[3]; prophylactic, 10 mg/kg daily intraperitoneal from day 0
  EAE disease course: EAE amelioration
[3]; therapeutic, 10 mg/kg daily intraperitoneal from disease onset (day 11)
  EAE disease course: EAE amelioration
non-stimulated PBMCs
  cell death in non-stimulated PBMCs: induction of non-apoptotic cell death
Human CD4+ T cells [4]
  expression of apoptosis- and cell death-associated genes: upregulation
Human PBMCs [5]; PHA-activated cells, edelfosine added two days later
  edelfosine concentration giving efficient reduction of proliferation: ≥ 3.3 µg/mL
Human PBMCs [5]; unstimulated controls
  edelfosine concentration giving significant reduction of proliferation: 33.3 µg/mL
Human CD4+ T cells [6]; [10]
  expression of cell cycle-associated genes: downmodulation; also recorded: down-regulated
  expression of genes associated with apoptosis and cell death: upregulation
  expression of immune and virus response-associated, type I interferon-related genes: consistent and profound upregulation; also recorded: upregulated
Human CD4+ T cells [6]; unstimulated cells, 10 μg/ml
  number of downregulated genes assigned to antigen processing and presentation (SLR≦−0.8): 25
Human CD4+ T cells [6]; [11]
  expression of immune response and antigen processing and presentation (MHC class II) genes: downmodulation; also recorded: downregulated
  number of upregulated genes (SLR≧0.8): 11
[7]; Homo sapiens, PBMC, 72 h, read-out: half maximal inhibitory concentration (IC50) of proliferation, PHA-stimulated cells, edelfosine added at seeding, three days of culture
  IC50: 0.64 ± 0.1 µg/mL (≈ 1.22 µM)
[7]; PHA-activated versus unstimulated PBMCs
  fold lower concentration at which PHA-activated cells are susceptible compared to cells without PHA: 10 fold
[7]; unstimulated controls, added at seeding, three days
  edelfosine concentration at which a reduction in proliferation was detectable: ≥ 10 µg/mL
Human PBMCs [8]
  effect on proliferation without stimulus: reduced to non-detectable levels; also recorded: inhibited cellular proliferation
Human PBMCs [9]; 24 h preincubation, washed, PHA stimulation, three days
  edelfosine concentration up to which cells retain proliferative function: up to 1 μg/ml
Human PBMCs [9]; preconditioned but unstimulated cells
  effect on proliferation: no significant reductions of proliferation; also recorded: No effect
